{
  "source": "patent US20220175738A1",
  "about": "“Tip60 Inhibitors and Methods of Use for Cardiovascular Disease” (The Medical College of Wisconsin, Inc., priority 2019, published 2022)",
  "system": "wild-type rat neonatal CMs",
  "assay": "Neonatal CM cell culture model: proliferation and apoptosis (planned)",
  "format": "cell-based",
  "conditions": "low concentrations 0.1-3 μM, 24 hours; expected",
  "from_the_text": "The cells will then be assessed for cell proliferation by direct cell counting and [3H]-thymidine incorporation as well as by immunostaining for Ki67, BrdU and pH3. Apoptosis will also be evaluated, by TUNEL labeling and by staining of caspase-3. All results will be confirmed using a minimum of three independent determinations, and statistical evaluation will be performed using ANOVA or a Student's t-test, as appropriate.",
  "data": [
    {"smiles": "c1cc(SSc2ccns2)sn1", "note": "[NU9056]", "values": [
      {"measurement": "CM proliferation (cell counting, [3H]-thymidine, Ki67, BrdU, pH3)", "value": "promote CM proliferation"}
    ]}
  ]
}
